Literature values, collected in publication PMC9248236 (Nature chemical biology, 2022).

Tested on: IR
Details: competition binding assays, substitution at B24 of insulin

Substance | affinity for IR lower than native PheB24 human insulin
IleB24: human insulin analog with PheB24 substituted by isoleucine (literature) | 2–3 fold
LeuB24: human insulin analog with PheB24 substituted by leucine (literature) | 2–3 fold
